Our source for the IC50 and Selectivity values is patent US20070123718A1, “Novel 4-amino-2(5H)-furanones” (Aston University, priority 2003, published 2007).

For experiment [1], the target named is T1, CCKB receptor (guinea pig cerebral cortex) (Cavia porcellus, UniProt H0VZC5).
T1 construct: CCKB (nM); other: guinea pig cerebral cortex membranes, 125I-Bolton-Hunter CCK 25 pM; Activity CCK-B [μM]; guinea pig cerebral cortex membranes
T1 sequence (H0VZC5 1-426): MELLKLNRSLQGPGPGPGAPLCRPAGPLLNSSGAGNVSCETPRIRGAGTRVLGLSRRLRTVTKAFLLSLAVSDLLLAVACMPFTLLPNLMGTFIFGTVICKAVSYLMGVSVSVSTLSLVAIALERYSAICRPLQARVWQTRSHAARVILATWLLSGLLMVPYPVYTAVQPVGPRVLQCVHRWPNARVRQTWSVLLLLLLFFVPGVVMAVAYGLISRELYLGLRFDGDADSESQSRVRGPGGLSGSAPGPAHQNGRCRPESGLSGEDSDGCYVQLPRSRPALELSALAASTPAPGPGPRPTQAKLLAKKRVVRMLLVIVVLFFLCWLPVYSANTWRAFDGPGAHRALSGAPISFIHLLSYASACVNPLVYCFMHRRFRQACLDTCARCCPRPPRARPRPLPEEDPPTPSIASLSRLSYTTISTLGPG
The experiment can be described thus: 125I-CCK-8 receptor binding assay, CCKB. To be noted: guinea pig cerebral cortex membranes. As to the method:
(§1) CCKA and CCKB receptor binding assays were performed, by using guinea pig cerebral cortex (CCKB) or rat pancreas (CCKA). Male guinea pig brain tissues were prepared according to the modified method described by Saita et al, [(1994), Characterization of YM022: its CCKB/gastrin receptor binding profile and antagonism to CCK-8-induced Ca2+mobilization., Eur. J. Pharmacol.,269, 249-254]. Pancreatic membranes were prepared in a similar way but by Charpentier et al, [(1988), Cyclic cholecystokinin analogues with high selectivity for central receptors., Proc Natl Acad Sci USA, 85, 1968-1972]. The […] CCK binding assay: Tissues were homogenized in ice cold sucrose (0.32 M, 25 ml) for 15 strokes at 500 rpm and centrifuged at 13000 rpm for 10 mins. The supernatant was re-centrifuged at 13000 rpm for 20 mins. The resulting pellet was re-dispersed to the required volume of buffer at 500 rpm and stored in aliquots at […].
(§2) Binding was achieved using a radioligand ^125I-Bolton-Hunter labeled CCK, NEN at 25 pM. The samples were incubated {with membranes (0.1 mg/ml) } in 20 mM Hepes, 1 mM EGTA, 5 mM MgCl2, 150 mm NaCl, 0.25 mg/ml bacitracin at pH 6.5 for 2 hrs at RT and then […] by centrifugation at 1100 rpm for 5 minutes. The membrane pellets were washed twice with water and the bound radioactivity was measured in a Packard Cobra Auto-gamma counter (B5005). All binding assays were carried out with L-363, 260 as an internal non-specific standard. Controls (no compound) were also added. All samples were made in duplicate and repeated twice. All compounds were initially screened for percentage inhibition at 20 μm. Samples showing an average inhibition of <35% were diluted to 2 μm and re-screened and if active diluted again.

In experiment [2] the test system is CCKB receptor (guinea pig cerebral cortex). The experiment can be described thus: 125I-CCK-8 receptor binding assay, CCKB. To be noted: ratio CCKB/CCKA. As to the method: as §1, §2
Experiment [3] has as its target T2, CCKA receptor (rat pancreas) (Rattus norvegicus, UniProt P30551).
T2 construct: Pancreatic membranes were prepared in a similar way but by Charpentier et al; from tissue; host or cells: rat pancreas membranes
T2 sequence (P30551 1-444): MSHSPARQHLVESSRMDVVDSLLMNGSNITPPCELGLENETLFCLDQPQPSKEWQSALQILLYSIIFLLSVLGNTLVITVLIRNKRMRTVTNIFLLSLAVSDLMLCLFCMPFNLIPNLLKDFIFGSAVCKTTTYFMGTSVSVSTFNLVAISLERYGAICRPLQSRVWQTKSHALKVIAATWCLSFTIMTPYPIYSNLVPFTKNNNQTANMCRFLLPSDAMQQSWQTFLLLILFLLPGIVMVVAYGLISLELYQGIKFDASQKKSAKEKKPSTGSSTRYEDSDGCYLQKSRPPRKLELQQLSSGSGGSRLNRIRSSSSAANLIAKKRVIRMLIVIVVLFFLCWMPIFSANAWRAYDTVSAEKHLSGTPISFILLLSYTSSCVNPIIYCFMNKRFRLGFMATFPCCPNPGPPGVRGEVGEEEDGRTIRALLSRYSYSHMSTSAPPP
The experiment can be described thus: 125I-CCK-8 receptor binding assay, CCKA. As to conditions: rat pancreas membranes, 125I-Bolton-Hunter CCK 25 pM. On the procedure:
as §1, §2

Where [4] appears, read: 125I-Bolton-Hunter CCK 25 pM, read-out: CCKB.
Setting [5] is: Table 2, read-out: Activity CCK-B [μM] (IC50).

Where two headings read alike, the source gives them in different places.

Consider `CCN(C1=C(Cl)C(=O)OC1CC(=O)c1ccc(Cl)cc1)c1cccc(C)c1` (stereo not drawn) [Example 16, 3-Chloro-5-[2-(4-chlorophenyl)-2-oxoethyl]-4-(ethyl-3-methylanilino) furan-2(5H)-one], for which the IC50 in experiment [1] (setting [4]) stood at 0.019 µM; in experiment [3], 8 nM. For the same compound, the Selectivity in experiment [2] is recorded as 2.3.

For the compound `C#CCOC1OC(=O)C(Cl)=C1N(C(C)C)C1CCCCC1` (stereo not drawn) [Example 6, 3-Chloro-4-[cyclohexyl(isopropyl)amino]-5-(prop-2-ynyloxy)furan-2(5H)-one], the results for the IC50 in experiment [1] (setting [4]) and in experiment [3] were 0.008 µM and 6 nM, respectively. For the same compound, the Selectivity in experiment [2] is given as 1.3.

With `C#CCOC1OC(=O)C(Cl)=C1NCc1ccccc1` (stereo not drawn) [Example 4, 4-(Benzylamino)-3-chloro-5-(prop-2-ynyloxy)furan-2(5H)-one], the figures for the IC50 in experiment [1] (setting [4]) and in experiment [3] were 0.014 µM and 9 nM, respectively. Besides, the Selectivity in experiment [2] is 1.5.

As to `CC1CCC(C(C)C)C(OC2OC(=O)C(Cl)=C2N2CCCC2)C1` (stereo not drawn) [Example A1B9], the IC50 in experiment [1] (setting [5]) worked out at 2.2 µM.

Consider `COC1OC(=O)C(Cl)=C1NCCCN1CCOCC1` (stereo not drawn) [Example A8B17], for which the IC50 in experiment [1] (setting [5]) came out at 15 µM.

Consider `COC1OC(=O)C(Cl)=C1n1ccc(C)n1` (stereo not drawn) [Example A8B26], for which the IC50 in experiment [1] (setting [5]) stood at 11 µM.

For the compound `COC1OC(=O)C(Cl)=C1N1CCC(c2ccccc2)CC1` (stereo not drawn) [Example A8B11], the IC50 in experiment [1] (setting [5]) amounted to 3 µM.

Take `C#CCOC1OC(=O)C(Cl)=C1N1C(C)CNCC1C` (stereo not drawn) [Example A3B20]: the IC50 in experiment [1] (setting [5]) came out at 11.2 µM.

For the compound `CCC(C)NC1=C(Cl)C(=O)OC1OC` (stereo not drawn) [Example A8B5], the IC50 in experiment [1] (setting [5]) is 1.2 µM.

Turning to `C#CCOC1OC(=O)C(Cl)=C1N1CC(C)OC(C)C1` (stereo not drawn) [Example 3, 3-Chloro-4-(2,6-dimethylmorpholin-4-yl)-5-(prop-2-ynyloxy)furan-2(5H)-one], the IC50 in experiment [1] (setting [5]) was determined as 12.6 µM.

With `CC(C)OC1OC(=O)C(Cl)=C1NCCc1ccccc1` (stereo not drawn) [Example 13, 3-Chloro-5-isopropoxy-4-(phenethylamine)furan-2(5H)-one], the IC50 in experiment [1] (setting [5]) came to 1.1 µM.

Consider `CCCCCCCCCCCCCCCCOC1OC(=O)C(Cl)=C1n1cc(C)cc1C` (stereo not drawn) [Example A7B23], for which the IC50 in experiment [1] (setting [5]) is 0.86 µM.

Turning to `COC1OC(=O)C(Cl)=C1N1CCN(Cc2ccccc2)CC1` (stereo not drawn) [Example A8B16], the IC50 in experiment [1] (setting [5]) was found to be 16 µM.

For `CC(C)CNC1=C(Cl)C(=O)OC1c1ccccc1` (stereo not drawn) [Example 17, 3-Chloro-4-(isobutylamino)-5-phenyl furan-2(5H)-one], the IC50 in experiment [1] (setting [4]) is 0.011 µM; in experiment [3], 7 nM. Further, the Selectivity in experiment [2] stood at 1.6.

For `CCCCCCNC1=C(Cl)C(=O)OC1OC` (stereo not drawn) [Example 15, 3-Chloro-4-(hexylamino)-5-methoxyfuran-2(5H)-one], the IC50 in experiment [1] (setting [4]) was 0.012 µM; in experiment [3], 8 nM. The Selectivity in experiment [2] is given as 1.5.

Regarding `COC1OC(=O)C(Cl)=C1Nc1cccc(C)c1` (stereo not drawn) [Example A8B4], in experiment [1] (setting [5]), the IC50 was found to be 2.5 µM.

As for `CC1CCC(C(C)C)C(OC2OC(=O)C(Cl)=C2N(C)Cc2ccccc2)C1` (stereo not drawn) [Example 1, 4-[Benzyl(metliyl)arino]-3-chloro-5-[(2-isopropyl-5-methlylcyclohexyl)oxo] furan-2(5H)-one], in experiment [1] (setting [5]), the IC50 is 0.31 µM.

With `CC(C)OC1OC(=O)C(Cl)=C1N1CCc2ccccc21` (stereo not drawn) [Example 9, 3-Chloro-4-(2,3-dihydro-1H-indol-1-yl)-5-isopropoxy-2(5H)-one], the IC50 in experiment [1] (setting [5]) was found to be 2.5 µM.

For `C=COC1OC(=O)C(Cl)=C1Nc1c(C)n(C)n(-c2ccccc2)c1=O` (stereo not drawn) [Example 7, 3-Chloro-4-[(1,5-dimethyl-2-phenyl-1,3-dihydro-3H-pyrazol-3-one)amino]-5-(vinyloxy)furan-2(5H)-one], in experiment [1] (setting [5]), the IC50 amounted to 3.3 µM.

As for `COC1OC(=O)C(Cl)=C1n1cnc2ccccc21` (stereo not drawn) [Example A8B3], in experiment [1] (setting [5]), the IC50 is 2.3 µM.

Consider `CCCCCCCCCCCCCCCCOC1OC(=O)C(Cl)=C1N1CCN(C(=O)OCC)CC1` (stereo not drawn) [Example A7B24], for which, in experiment [1] (setting [5]), the IC50 was 12.4 µM.

Regarding `COC1OC(=O)C(Cl)=C1N1CCN(c2ccccc2)CC1` (stereo not drawn) [Example A8B8], in experiment [1] (setting [5]), the IC50 was found to be 14 µM.

As for `O=C1OC(Cl)C(Nc2ccccc2)=C1Cl` (stereo not drawn) [Example 8, 4-Anilino-3,5-dichlorofuran-2(5H)-one], in experiment [1] (setting [5]), the IC50 is 16 µM.

Consider `CC(C)OC1OC(=O)C(Cl)=C1N(Cc1ccccc1)Cc1ccccc1` (stereo not drawn) [Example 12, 3-Chloro-4-(dibenzylamino)-5-isopropoxyfuran-2(5H)-one], for which the IC50 in experiment [1] (setting [5]) came to 17 µM.

In the case of `C#CCOC1OC(=O)C(Cl)=C1N1CCN(Cc2ccccc2)CC1` (stereo not drawn) [Example 5, 4-(4-Benzylpiperazin-1-yl) 3-chloro-5-(prop-2-ynyloxy)furan-2(5H)-one], the IC50 in experiment [1] (setting [5]) is greater than 20 µM.

As for `COC1OC(=O)C(Cl)=C1N1CCc2ccccc21` (stereo not drawn) [Example A8B2], the IC50 in experiment [1] (setting [5]) worked out at 1.5 µM.

`CCCCCCCCCCCCNC1=C(Cl)C(=O)OC1OC` (stereo not drawn) [Example A8B10]: the IC50 in experiment [1] (setting [5]) amounted to 2.5 µM.

Turning to `COC1OC(=O)C(Cl)=C1NC1CCC(CCCc2ccccc2)CC1` (stereo not drawn) [Example A8B25], in experiment [1] (setting [5]), the IC50 stood at 16 µM.

As for `CC(C)OC1OC(=O)C(Cl)=C1N(C)Cc1ccccc1` (stereo not drawn) [Example 10, 4-[Benzyl(methyl)amino]-3-chloro-5-isopropoxyfuran-2(5H)-one], in experiment [1] (setting [5]), the IC50 was determined as 12 µM.

For the compound `CC(C)OC1OC(=O)C(Cl)=C1NCc1ccccc1Cl` (stereo not drawn) [Example 11, 3-Chloro-4-[(2-chlorobenzyl)amino]-5-isopropoxy-4-2(SH)-oue], in experiment [1] (setting [5]), the IC50 was 0.95 µM.

As for `COC1OC(=O)C(Cl)=C1Nc1c(C)n(C)n(-c2ccccc2)c1=O` (stereo not drawn) [Example 14], the IC50 in experiment [1] (setting [5]) is 18 µM.

`CC(=O)OC1OC(=O)C(Cl)=C1N1CCc2ccccc21` (stereo not drawn) [Example 2, 4-ClIforo-3-(2,3-dihydro-1H-indol-1-yl)-5-oxo-2,5-dihydrofuran-2-yl acetate]: in experiment [1] (setting [5]), the IC50 is greater than 20 µM.
